Source: ChEMBL document CHEMBL1212835, “Identification of a potent and noncytotoxic inhibitor of melanin production” (Bioorg Med Chem, 2010)
Several values for one entry are separate records, joined by “and”; a condition that tells them apart may be missing. Equal entries are not always repeated. Activity calls are given as the source filed them. The rule behind the calls is not given here.

System: Cavia porcellus
Experiment: Antimelanogenic activity in guinea pig skin assessed as inhibition of UVB-induced pigmentation at 10 ug administered topically bid for 4 weeks
Format: functional, organism-based
Details: not given

| Compound | Activity |
| --- | --- |
| COc1cccc(C(=O)Nc2cc(C)cc(C)c2)c1 | Active |

System: not listed separately
Experiment: Cytotoxicity against mouse Melan-a cells assessed as cell viability at 30 uM
Format: cell-based
Details: Melan-a cells, read-out: Activity

| Compound | viability at 30 µM [%] |
| --- | --- |
| COc1ccc(C(=O)Nc2cccc(C)c2)cc1 | -1.7 |
| COc1ccc(C(=O)Nc2cccc(OC)c2)cc1 | 0.6 |
| COc1ccccc1NC(=O)c1ccc(C#N)cc1 | -3.1 |
| COc1cc(NC(=O)c2ccco2)cc(OC)c1 | -1.3 |
| CCc1ccc(C(=O)Nc2ccc(C(=O)OC)cc2)cc1 | 2 |
| COC(=O)c1cccc(NC(=O)c2ccccc2C)c1 | 4.6 |
| COc1cccc(C(=O)Nc2cc(OC)ccc2OC)c1 | 17.8 |
| O=C(Nc1cc(C(F)(F)F)cc(C(F)(F)F)c1)c1ccco1 | 31.9 |
| COC(=O)c1ccccc1NC(=O)c1cccc(C)c1 | 29.6 |
| COc1ccc(OC)c(NC(=O)c2ccccc2C)c1 | 8.6 |
| CCc1ccc(C(=O)Nc2cccc(OC)c2)cc1 | 6.3 |
| COC(=O)c1ccc(NC(=O)c2ccccc2C)cc1 | 0.8 |
| CCc1ccc(C(=O)Nc2ccc(OC)cc2)cc1 | -9.9 |
| COc1ccc(OC)c(NC(=O)c2ccc(C#N)cc2)c1 | -1.7 |
| COc1ccc(NC(=O)c2ccc(C#N)cc2)c(OC)c1 | 7.2 |
| CCc1ccc(C(=O)Nc2ccccc2C(=O)OC)cc1 | 18.9 |
| COC(=O)c1ccccc1NC(=O)c1ccco1 | -2.3 |
| COc1ccc(NC(=O)c2ccc(C#N)cc2)cc1 | 8.8 |
| Cc1cc(C)cc(NC(=O)c2ccco2)c1 | 14.2 |
| Cc1cc(C)cc(NC(=O)c2ccccc2C)c1 | 25.6 |
| Cc1ccc(NC(=O)c2ccc(C#N)cc2)cc1 | 10.9 |
| Cc1ccc(C(=O)Nc2cc(C(F)(F)F)cc(C(F)(F)F)c2)cc1 | 0.3 |
| COc1cc(NC(=O)c2ccc(C#N)cc2)cc(OC)c1 | 9.6 |
| COC(=O)c1ccccc1NC(=O)c1ccccc1C | 9.7 |

| Compound | viability at 30 µM [%] |
| --- | --- |
| CCc1ccc(C(=O)Nc2cccc(C(=O)OC)c2)cc1 | 37 |
| Cc1cccc(NC(=O)c2ccccc2C)c1 | 5.8 |
| CCc1ccc(C(=O)Nc2ccc(OC)cc2OC)cc1 | -6.5 |
| COc1ccc(OC)c(NC(=O)c2ccco2)c1 | -17 |
| Cc1cccc(NC(=O)c2ccco2)c1 | -1.3 |
| COc1ccc(OC)c(NC(=O)c2cccc(C)c2)c1 | 0.3 |
| COC(=O)c1ccccc1NC(=O)c1ccc(C)cc1 | 20.1 |
| CCCCOc1ccc(NC(=O)c2ccc(OC)cc2)cc1 | 1 |
| COc1ccccc1NC(=O)c1cccc(C)c1 | 11.1 |
| COc1ccc(NC(=O)c2ccccc2C)cc1 | 12.8 |
| COc1cc(NC(=O)c2cccc(OC)c2)cc(OC)c1 | 9.6 |
| COC(=O)c1ccccc1NC(=O)c1ccc(C#N)cc1 | 8 |
| COc1cccc(C(=O)Nc2cc(C(F)(F)F)cc(C(F)(F)F)c2)c1 | 9 |
| COc1cccc(NC(=O)c2ccc(C)cc2)c1 | 2.7 |
| COc1ccc(C(=O)Nc2ccc(C)cc2)cc1 | 0.7 |
| COC(=O)c1ccc(NC(=O)c2ccc(OC)cc2)cc1 | -5.6 |
| COC(=O)c1cccc(NC(=O)c2ccc(C)cc2)c1 | 16.4 |
| COc1ccc(C(=O)Nc2cc(OC)cc(OC)c2)cc1 | 13.6 |
| Cc1cccc(C(=O)Nc2cc(C(F)(F)F)cc(C(F)(F)F)c2)c1 | -2.3 |
| CC(=O)c1ccc(NC(=O)c2ccccc2C)cc1 | 0.1 |
| CCc1ccc(C(=O)Nc2cccc(C)c2)cc1 | -2.2 |
| COc1ccccc1NC(=O)c1ccco1 | -5.4 |
| CCc1ccc(C(=O)Nc2cc(OC)ccc2OC)cc1 | -19.8 |
| COc1ccc(NC(=O)c2ccco2)c(OC)c1 | -24.1 |

| Compound | viability at 30 µM [%] |
| --- | --- |
| COc1cccc(NC(=O)c2ccc(C#N)cc2)c1 | -9.4 |
| COc1ccc(NC(=O)c2c(OC)cccc2OC)cc1 | 10.2 |
| COc1ccc(C(=O)Nc2ccc(OC)cc2OC)cc1 | -9.4 |
| COC(=O)c1ccc(NC(=O)c2ccco2)cc1 | -8.4 |
| CCCCOc1ccc(NC(=O)c2ccc(CC)cc2)cc1 | -10.8 |
| COc1ccc(NC(=O)c2ccccc2C)c(OC)c1 | -3.5 |
| COC(=O)c1ccc(NC(=O)c2ccc(C#N)cc2)cc1 | 14.2 |
| Cc1ccc(NC(=O)c2ccc(C)cc2)cc1 | 13.9 |
| COC(=O)c1cccc(NC(=O)c2cccc(OC)c2)c1 | 20.1 |
| COc1cc(NC(=O)c2ccc(C)cc2)cc(OC)c1 | 19.2 |
| COc1ccc(NC(=O)c2cccc(C)c2)cc1 | -0.4 |
| COc1ccc(C(=O)Nc2cc(C(F)(F)F)cc(C(F)(F)F)c2)cc1 | 21 |
| COc1cc(NC(=O)c2ccccc2C)cc(OC)c1 | 6.4 |
| Cc1ccc(NC(=O)c2ccco2)cc1 | 7.9 |
| COc1ccc(C(=O)Nc2cc(C)cc(C)c2)cc1 | 31.9 |
| CCCCOc1ccc(NC(=O)c2ccco2)cc1 | 3.7 |
| COc1cccc(C(=O)Nc2ccc(C)cc2)c1 | 7.5 |
| COC(=O)c1cccc(NC(=O)c2ccc(C#N)cc2)c1 | 0.8 |
| COc1ccccc1NC(=O)c1ccc(C)cc1 | 18.5 |
| COc1cc(NC(=O)c2cccc(C)c2)cc(OC)c1 | -12.6 |
| COc1ccc(NC(=O)c2ccc(C)cc2)c(OC)c1 | 14.4 |
| COc1cccc(NC(=O)c2ccco2)c1 | 0.4 |
| COc1ccc(C(=O)Nc2ccccc2OC)cc1 | -2.6 |
| COC(=O)c1cccc(NC(=O)c2ccc(OC)cc2)c1 | 18.8 |

| Compound | viability at 30 µM [%] |
| --- | --- |
| COC(=O)c1ccccc1NC(=O)c1cccc(OC)c1 | 11.1 |
| N#Cc1ccc(C(=O)Nc2cc(C(F)(F)F)cc(C(F)(F)F)c2)cc1 | 33.3 |
| COc1ccccc1NC(=O)c1ccccc1C | 7 |
| CCc1ccc(C(=O)Nc2cc(C(F)(F)F)cc(C(F)(F)F)c2)cc1 | 16.5 |
| COc1cccc(NC(=O)c2cccc(C)c2)c1 | -0.3 |
| CCCCOc1ccc(NC(=O)c2ccccc2C)cc1 | 9.9 |
| COc1ccc(NC(=O)c2cccc(OC)c2)cc1 | 0.5 |
| COc1ccc(NC(=O)c2ccc(OC)cc2)cc1 | -10.6 |
| CCc1ccc(C(=O)Nc2ccc(C)cc2)cc1 | 1.8 |
| COc1ccc(NC(=O)c2ccc(C)cc2)cc1 | 4.9 |
| COc1cccc(C(=O)Nc2ccccc2OC)c1 | 10.1 |
| CCCCOc1ccc(NC(=O)c2ccc(C#N)cc2)cc1 | -4.4 |
| Cc1cc(C)cc(NC(=O)c2ccc(C#N)cc2)c1 | 31.6 |
| CCc1ccc(C(=O)Nc2cc(OC)cc(OC)c2)cc1 | 10.1 |
| Cc1cc(C)cc(NC(=O)c2cccc(C)c2)c1 | 6 |
| COC(=O)c1ccccc1NC(=O)c1ccc(OC)cc1 | 31.1 |
| Cc1cccc(NC(=O)c2cccc(C)c2)c1 | -0.1 |
| COC(=O)c1ccc(NC(=O)c2cccc(C)c2)cc1 | 12.9 |
| COC(=O)c1cccc(NC(=O)c2cccc(C)c2)c1 | 10.5 |
| COc1ccc(NC(=O)c2cccc(C)c2)c(OC)c1 | 3.2 |
| COc1ccc(C(=O)Nc2ccc(C(C)=O)cc2)cc1 | 0.7 |
| CC(=O)c1ccc(NC(=O)c2cccc(C)c2)cc1 | -5.9 |
| Cc1ccc(C(=O)Nc2cccc(C)c2)cc1 | 14.3 |
| COC(=O)c1ccc(NC(=O)c2ccc(C)cc2)cc1 | 11.2 |

| Compound | viability at 30 µM [%] |
| --- | --- |
| Cc1ccc(C(=O)Nc2cc(C)cc(C)c2)cc1 | 30.9 |
| Cc1ccc(NC(=O)c2cccc(C)c2)cc1 | -2.4 |
| CCc1ccc(C(=O)Nc2ccc(C(C)=O)cc2)cc1 | 3.4 |
| CCCCOc1ccc(NC(=O)c2ccc(C)cc2)cc1 | -2.4 |
| COc1ccc(NC(=O)c2ccco2)cc1 | 13.6 |
| CC(=O)c1ccc(NC(=O)c2ccc(C)cc2)cc1 | 11.2 |
| COC(=O)c1ccc(NC(=O)c2cccc(OC)c2)cc1 | 13.7 |
| CCc1ccc(C(=O)Nc2ccccc2OC)cc1 | 13.5 |
| CCCCOc1ccc(NC(=O)c2cccc(C)c2)cc1 | 4.8 |
| COC(=O)c1cccc(NC(=O)c2ccco2)c1 | 0.4 |
| Cc1ccccc1C(=O)Nc1cc(C(F)(F)F)cc(C(F)(F)F)c1 | 15.1 |
| COc1cccc(NC(=O)c2cccc(OC)c2)c1 | -8.4 |
| COc1ccc(OC)c(NC(=O)c2ccc(C)cc2)c1 | -3.2 |
| COc1ccc(C(=O)Nc2cc(OC)ccc2OC)cc1 | -8.3 |
| CC(=O)c1ccc(NC(=O)c2ccco2)cc1 | -2.6 |
| COc1cccc(C(=O)Nc2cccc(C)c2)c1 | 12 |
| COc1cccc(C(=O)Nc2ccc(OC)cc2OC)c1 | -3.9 |
| CCCCOc1ccc(NC(=O)c2cccc(OC)c2)cc1 | 19.1 |
| COc1cccc(NC(=O)c2ccccc2C)c1 | 13.4 |
| Cc1ccc(NC(=O)c2ccccc2C)cc1 | -0.2 |
| COc1cccc(C(=O)Nc2cc(C)cc(C)c2)c1 | 32 |
| Cc1cccc(NC(=O)c2ccc(C#N)cc2)c1 | 11.1 |
| CC(=O)c1ccc(NC(=O)c2ccc(C#N)cc2)cc1 | 6.9 |
| COc1cccc(C(=O)Nc2ccc(C(C)=O)cc2)c1 | -5 |

Same assay, conditions: melan-a, 30 µM

| Compound | Activity |
| --- | --- |
| CCc1ccc(C(=O)Nc2cc(C)cc(C)c2)cc1 | 41.5% and > 90% |
